Assay results published in publication PMC11679793, “Structure-Activity Relationship Study of Majusculamide D: Overcoming Metabolic Instability and Severe Toxicity with a Fluoro Analogue” (Marine Drugs, 2024).

Key:
PANC-1 cells = assay: MTT cell activity assay (inhibitory activity against PANC-1 cells); type: cell-based; settings: Homo sapiens, PANC-1, 72 h, read-out: IC50 (nM), inhibitory activity against PANC-1 cells (Table 1), PANC-1 cells, 72 h incubation, mean ± SD, n = 3
Description: A total of 3000 PANC-1 cells were resuspended in 200 μL of culture medium and seeded into 96-well plates. After 24 h, the cells were treated with the compound and incubated for an additional 72 h. Following the incubation, 20 μL of 5 mg/mL MTT solution (Solarbio, China) was added to each well in the dark, and the cells were incubated for another 4 h. After incubation, the culture medium was discarded, and the wells were washed with PBS to remove any residual medium. Then, 200 μL of DMSO was added to each well to fully dissolve the formazan crystals, and the solution was mixed thoroughly. The absorbance was measured at 492 nm/570 nm, and the data were analyzed using GraphPad Prism.

[1] = Stability in mouse plasma assay; type: in vitro ADME; settings: 1 μM, 37 °C; for stability in mouse plasma compared to 1a (in words): 0-24 h
Description: Thaw plasma at room temperature and vortex for 3–5 s. Centrifuge at 3000 rpm at 10 °C for 10 min, and carefully transfer the supernatant to a new Eppendorf tube. Preincubate the plasma at 37 °C for 10 min. Prepare a series of test substances by adding 3 μL of the compound (100 μM) to 297 μL of plasma to achieve a final concentration of 1 μM, ensuring that the DMSO concentration in plasma is 1%. Propantheline bromide is used as a positive control. Incubate the mixture at 37 °C, and at specified time points (0, 1, 2, 4, and 24 h), take 50 μL of the plasma sample. To terminate the reaction, add 250 μL of acetonitrile (containing an internal standard), vortex thoroughly, and centrifuge at 16,000 rcf (4 °C) for 10 min. Collect 130 μL of the supernatant and dilute with 70 μL of pure water for LC-MS/MS analysis. The concentration of the test substances in plasma samples was determined using LC-MS/MS. The stability of the test substance in plasma was evaluated by measuring the remaining percentage of the compound in the plasma over time.

PANC-1 xenograft tumor = settings: for tumor inhibition rate (%): calculated from tumor weight, 1c, gemcitabine 20 mg/kg i.v.
Description: Furthermore, a xenografted murine subcutaneous tumor model was employed to evaluate the effects of majusculamide D and the optimized analogues 1c and 1n (Figure 1B). PANC1-bearing BALB/c nude mice were separated randomly, with a total of six mice in each group. Gemcitabine was chosen as the positive drug; the mice were then administered intravenous doses of 1c (5 mg/kg), 1n (5 mg/kg), 1a (5 mg/kg), and gemcitabine (20 mg/kg) every other day for 24 days.
A total of 4 × 10^6 PANC-1 cells suspended in 100 μL PBS were subcutaneously injected into the right shoulder region of BALB/c nude mice. When the tumor volume reached approximately 200 mm^3, the mice were euthanized, and the tumor tissues were harvested and designated as F1 generation. Tumor tissues were then cut into small cubes measuring approximately 3 × 3 × 3 mm, which were implanted into new BALB/c mice to propagate the tumors. This procedure was repeated to obtain the F2 generation of tumors. Finally, mice bearing F3 generation transplant tumors were used for drug treatment experiments. When the tumor volume reached approximately 80–100 mm^3, the mice were randomly divided into five groups (n = 6): control group, 5 mg/kg compound 1a group, 5 mg/kg compound 1c group, 5 mg/kg compound 1n group, and 20 mg/kg gemcitabine group. The compounds 1a, 1c, and 1n were dissolved in DMSO and then diluted with 0.9% physiological saline to achieve a final concentration of 0.5 mg/mL as the dosing concentration. Gemcitabine was dissolved directly in 0.9% saline to achieve a final concentration of 2 mg/mL as the dosing concentration. The compounds were administered intravenously every two days, alternating between the left and right tail veins to minimize vein damage. Injections were performed using ultra-fine syringes (30G needles) to reduce stress and ensure consistent delivery. The body weight and tumor volume of the mice were measured every four days. On day 24, the mice were euthanized, and the tumor weights were recorded. Tumor volume (V) was calculated using the formula: V = (ab^2)/2, with “a” representing the long diameter of the tumor and “b” representing the short diameter of the tumor. […] Tumor weight was used to calculate the tumor inhibition rate (Figure 1G).

[2] = Serum biochemical analysis and H&E histology of liver and kidney; type: in vivo, mice; settings: 5 mg/kg every other day, 14 days
Description: In the biochemical and histological assays, 1n (5 mg/kg) and 1a (5 mg/kg) were administered to mice every other day, with the control group receiving an equivalent dose of saline. Following 14 days, mouse serum was collected for biochemical analysis, and organs were fixed for histological examination. […] In comparison, the liver tissues of the 1n-treated and control groups were normal.
Mice were euthanized, and liver and kidney tissues were collected and fixed in 10% neutral-buffered formalin for 48 h. The fixed tissues were processed for paraffin embedding, including dehydration in a graded ethanol series, clearing with xylene, and infiltration with molten paraffin wax. Paraffin blocks were sectioned into 4 μm slices using a rotary microtome, and the sections were mounted onto glass slides. The slides were dried at 60 °C for 4 h to ensure proper tissue adhesion. Following deparaffinization and rehydration, staining was performed according to the manufacturer’s instructions for the H&E staining kit (Solarbio, China). The sections were immersed in a hematoxylin solution for 3 min to stain the nuclei and then rinsed under running tap water for 1 minute to remove excess stain. Differentiation was achieved by briefly immersing the slides in a 1% hydrochloric acid-ethanol solution, followed by neutralization in 0.6% ammonia water until the nuclei appeared blue. Eosin staining was applied for 30 s to stain cytoplasmic and extracellular components, imparting a pink coloration. The slides were rinsed under running tap water for 30 s to remove excess eosin. Finally, the sections were dehydrated through a graded ethanol series, cleared with xylene, and coverslipped with a neutral resin mounting medium to preserve the stained tissues for microscopic examination.

Compound | IC50 (PANC-1 cells) [nM] | stability in mouse plasma compared to 1a (in words) [1] | tumor inhibition rate (%) (PANC-1 xenograft tumor; day 24, 1a, 1n 5 mg/kg) | remaining percentage in mouse plasma after 24 h ([1]; 24 h incubation) [%] | impact on mouse body weight gain (PANC-1 xenograft tumor; 5 mg/kg i.v. every other day, 24 days) | mice dead in treated group (PANC-1 xenograft tumor; 5 mg/kg i.v., xenografted mouse model, six mice per group) | tumor weight (PANC-1 xenograft tumor; day 24, i.v. every other day, 1a, 1n 5 mg/kg, gemcitabine 20 mg/kg, mean ± SD) [g] | tumor volume (PANC-1 xenograft tumor; i.v. every other day for 24 days, 1a, 1n 5 mg/kg, gemcitabine 20 mg/kg, mean ± SD, n = 6) [mm^3] | kidney tissue H&E histology [2] | liver tissue H&E histology [2] | serum ALT and AST levels compared to the control group ([2]; n = 3)
CCCCC(C)CC(C)C(=O)N(C)C(Cc1ccc(OC)cc1)C(=O)NC(C(=O)N(C)C(C(=O)N1CC(O)CC1C(=O)N1C(=O)C=CC1C)C(C)C)C(C)OC(F)(F)F (centres unmarked) [Compound 1c] | 2.07 ± 0.67 | significantly superior stability compared to 1a | 40.4 |  |  |  |  |  |  |  | 
CCCCCC[C@@H](C)C(=O)N(C)[C@@H](Cc1ccc(F)cc1)C(=O)N[C@H](C(=O)N(C)[C@H](C(=O)N1C[C@@H](O)C[C@H]1C(=O)N1C(=O)C=C[C@@H]1C)C(C)C)[C@@H](C)OC(F)(F)F [Compound 1n] | 3.83 | significantly superior stability compared to 1a | 51.5 | > 50 | lesser impact on weight gain compared to 1a | no mouse dead | 0.542 ± 0.156 | 553.3 ± 166.8 | no significant pathological differences | normal | no significant differences
